Assay results from patent US4183909A, “Phenylglycine-containing new peptides with gastrine effects and a process for the preparation thereof” (Richter Gedeon Vegyeszeti Gyar Rt., priority 1976, dated 1980).
Square brackets hold non-standard residues; d marks the D form. Peptide text beside a SMILES is read from it. * marks the point of attachment. dPhg = N[C@@H](C(=O)O)c1ccccc1; Phg = N[C@H](C(=O)O)c1ccccc1; X1 = CC(C)(C)OC(=O)NOCC(=O)*

Experiments:
gastric acid secretion [1] = assay: Gastric acid secretion increasing effect, administered parenterally or enterally (methods of Ghosh and Schild and of Lai, modified by Pissidis and Clark); format: in vivo
Method: The biological activities of the new compounds according to the invention were tested by the methods of Ghosh and Schild (Br. J. Pharmac. Chemoth. 13, 54 1958) and Lai (Gut 5, 327 1964), modified by Pissidis and Clark (Gut 8, 196 1967). The pharmacological tests have shown that the new compounds, when administered intravenously, increase the gastric acid secretion to a great extent. […] It is also remarkable that some of the new compounds highly increase the gastric acid secretion after resorption from the rectum.

gastric acid secretion [2] = conditions: in vivo; cited from earlier work

## CSCC[C@H](NC(=O)[C@H](Cc1c[nH]c2ccccc12)NC(=O)CCNC(=O)OC(C)(C)C)C(=O)N[C@@H](CC(=O)O)C(=O)N[C@@H](Cc1ccccc1)C(N)=O [pentagastrin, BOC-β-Ala-Trp-Met-Asp-Phe-NH2, reference compound]
Gastric acid secretion [1]; administered enterally, even in higher dosages
  Effect on gastric acid secretion: does not increase the gastric acid secretion

## H-Trp-Met-Asp-Phe-NH2
Gastric acid secretion [2]
  Gastric acid secretion stimulating effect relative to the total hormone (gastrin): lower by about one order of magnitude

## CSCC[C@H](NC(=O)[C@H](Cc1c[nH]c2ccccc12)NC(=O)CONC(=O)OC(C)(C)C)C(=O)N[C@@H](CC(=O)O)C(=O)N[C@@H](C(N)=O)c1ccccc1 [BOC-OGly Met D, 2-(tert.-Butoxycarbonyl-aminooxy)-acetyl-L-tryptophyl-L-methionyl-L-aspartyl-D-phenylglycine-amide] (X1-WMD[dPhg]-NH2)
Gastric acid secretion [1]; 0.2 μg i.v.
  Gastric acid secretion increasing effect in comparison with that of a 0.2 μg/100 g i.v. dosage of pentagastrin: 28
Gastric acid secretion [1]; 2.0 μg i.v.
  Gastric acid secretion increasing effect in comparison with that of a 0.2 μg/100 g i.v. dosage of pentagastrin: 50

## CSCC[C@H](NC(=O)[C@H](Cc1c[nH]c2ccccc12)NC(=O)CONC(=O)OC(C)(C)C)C(=O)N[C@@H](CC(=O)O)C(=O)N[C@H](C(N)=O)c1ccccc1 [BOC-OGly Met L, 2-(tert.-Butoxycarbonyl-aminooxy)-acetyl-L-tryptophyl-L-methionyl-L-aspartyl-L-phenylglycine-amide] (X1-WMD[Phg]-NH2)
Gastric acid secretion [1]; 2.0 μg i.v.
  Gastric acid secretion increasing effect in comparison with that of a 0.2 μg/100 g i.v. dosage of pentagastrin: 116
Gastric acid secretion [1]; 20 μg intestinal (text: 20 μg/100 g body weight)
  Gastric acid secretion increasing effect in comparison with that of a 0.2 μg/100 g i.v. dosage of pentagastrin: 124
Gastric acid secretion [1]; 20 μg rectal
  Gastric acid secretion increasing effect in comparison with that of a 0.2 μg/100 g i.v. dosage of pentagastrin: 38
